# Measured values: paper PMC6934184, “Selective DNA-PKcs inhibition extends the therapeutic index of localized radiotherapy and chemotherapy” (The Journal of Clinical Investigation, 2019)
# Molecular target: T1, MKNK1 (MNK1) (Homo sapiens, UniProt Q9BUB5)
# T1 construct: purchased Thermo Fisher Scientific (Life Technologies) SelectScreen
# Assay: SelectScreen Z'LYTE
# Type: biochemical
# Method in brief: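 Percent values come from Thermo SelectScreen profiling of NU5455, combining activity and binding assays. CSF1R was run in Z'LYTE format at Km app ATP, and CAMK1 in Adapta format with ATP listed at 10.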
# T1 sequence (Q9BUB5 whole entry): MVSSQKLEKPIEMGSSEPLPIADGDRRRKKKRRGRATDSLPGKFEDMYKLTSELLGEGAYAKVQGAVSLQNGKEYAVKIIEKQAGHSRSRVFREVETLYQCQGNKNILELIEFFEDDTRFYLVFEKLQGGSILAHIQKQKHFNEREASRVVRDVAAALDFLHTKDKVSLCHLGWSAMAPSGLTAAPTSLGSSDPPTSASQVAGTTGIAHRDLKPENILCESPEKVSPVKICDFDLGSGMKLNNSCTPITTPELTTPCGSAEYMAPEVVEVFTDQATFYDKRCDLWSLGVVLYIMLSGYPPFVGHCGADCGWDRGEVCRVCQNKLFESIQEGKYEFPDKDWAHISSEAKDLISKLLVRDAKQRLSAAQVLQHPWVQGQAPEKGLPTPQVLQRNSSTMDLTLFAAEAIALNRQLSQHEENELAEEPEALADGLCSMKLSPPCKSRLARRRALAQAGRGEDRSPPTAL
smiles,measurement,value
CN(C(=O)CN1CCOCC1)c1ccc2sc3c(-c4cccc5c(=O)cc(N6CC7CCC(C6)O7)oc45)cccc3c2c1 [NU5455],inhibition at 1 µM,-10.7%
